These results are taken from paper PMC7845692 (Frontiers in Pharmacology, 2020).

The subject of one data set is Human coronavirus OC43. Nature of the data set: HCoV-OC43 immunofluorescent assay (IFA) against N protein in HCT-8 cells. In kind it is cell-based. The conditions noted are these: for EC50: read-out: Human coronavirus OC43 EC50 (IFA); for Human coronavirus OC43 Selectivity index: CC50/EC50, HCT-8 cells.
Data set [1] is described as follows: in vitro. The conditions noted are these: cat.
Description: (§2) The serotype II FIPV Taiwan isolate NTU156 strain, a kind gift from National Taiwan University, was propagated and titrated in Fcwf-4 cells ([Lin et al., 2009]). The EC50 for anti-FIPV activity and CC50 for cell cytotoxicity were determined as previously described ([Yang et al., 2020b]).
Data set [2] can be described thus: in vitro. The settings on record: human.
Data set [3] deals with Feline infectious peritonitis virus. Put plainly: anti-FIPV activity, cytopathic effect by visualization in Fcwf-4 cells. The conditions noted are these: for EC50: Alphacoronavirus 1, read-out: Feline infectious peritonitis virus EC50 CPE/visualization; for Feline infectious peritonitis virus Selectivity index: CC50/EC50, Fcwf-4 cells. (In general: Protection from cytopathic effect is a common read-out in antiviral testing.)
Description: as §2

The next data set relates to HCoV-OC43. Nature of the data set: HCoV-OC43 viral yield, end point dilution assay / TCID50. The conditions noted are these: for complete reduction of HCoV-OC43 viral yield: HCT-8, MOI 0.05, supernatant 72 h.p.i., at 30, 100 and 300 nM respectively (dbq33b, dbq33b4p7, PI09); for concentration accomplishing complete reduction of HCoV-OC43 viral yield: HCT-8, MOI 0.05, reduction ∼7–8 log. The class given is cell-based, Human coronavirus OC43.

In data set [4] the test system is HCoV-229E. Put plainly: HCoV-229E viral RNA (ORF1, ORF N) by semi-RT-qPCR in MRC-5 cells. In kind it is cell-based, Human coronavirus 229E. The conditions noted are these: MRC-5, MOI 1, 30 h.p.i., 10–300 nM, dose dependent. As for the experimental part: These experiments were performed as described ([Yang et al., 2007b]). Mock or HCoV-229E infected (MOI of 1) lysates were processed and prepared at 30 h.p.i. without or with compound treatment. The total RNA was extracted with TRIzol reagent (Invitrogen). The relative viral RNA expression levels were determined by semi-RT-qPCR, analyzed with the ImageJ Analyzer program (http://imagej.nih.gov/ij/index.html), and normalized with the housekeeping gene GAPDH. The primers used to amplify the PCR products were 5′-GGCGAGGTGGAATTTGTTTA-3′ and 5′-ACCTTTAAGCCACCATGTGC-3′ for ORF1; 5′-TCTGCCAAGAGTCTTGCTCG-3′ and 5′-AGCATAGCAGCTGTTGACGG-3′ for ORF N. The amplification of target cDNA was conducted under the following conditions: 25 cycles of 95°C for 30 s, 55°C for 20 s, and 72°C for 30 s for ORF N; 29 cycles of 95°C for 30 s, 55°C for 20 s, and 72°C for 30 s for ORF1, and 35 cycles of 95°C for 30 s, 55°C for 20 s, and 72°C for 30 s for GAPDH. The final PCR products were subjected to electrophoresis on 2% agarose gel containing ethidium bromide along with DNA markers.

The subject of data set [5] is SARS-CoV-2. Nature of the data set: SARS-CoV-2 cytopathic effect by visualization in Vero E6 cells. In kind it is cell-based. The conditions noted are these: for SARS-CoV-2 Selectivity index (CPE/visualization): CC50/EC50, Vero E6 cells; for EC50: Severe acute respiratory syndrome coronavirus 2, Vero C1008, Vero E6 cells, means from duplicate, read-out: SARS-CoV-2 EC50 CPE/visualization. The protocol:
(§1) CPE was performed as described ([Wu et al., 2004]). For IFA, Vero E6 cells (BCRC number: 60476; derived from ATCC CRL-1586) were treated with each compound at the indicated concentration for 1 h at 37°C. The cells were adsorbed with SARS-CoV-2 (TCDC#4) (sequence available on the GISAID website) at an MOI = 0.01 for 1 h at 37°C. After virus adsorption, the cells were washed with PBS and fresh medium containing each compound at the indicated concentration was added. After 2 days, cells were fixed with 4% paraformaldehyde and permeabilized with 0.5% Triton X-100. The cells were stained with anti-SARS-CoV-2 N protein antibody, provided by Dr. An-Suei Yang of the Genomics Research Center, Academia Sinica, and goat anti-human IgG-Alexa Fluor 488 (A11013, Invitrogen) (in green). The nuclei were counter stained with DAPI (in blue) (D1306, Invitrogen). The N protein expression was measured using a high-content image analysis system (Molecular Devices). The cell viability was determined by Cell Counting Kit-8 (CCK-8) (Sigma-Aldrich, cat #96992). EC50 and CC50 values were calculated by Prism software.

Data set [6] can be described thus: Vero E6 cytotoxicity by visualization. The class given is cell-based. The conditions noted are these: African green monkey, Vero E6 cells; read-out: SARS-CoV-2 CC50 Visualization. As for the experimental part: as §1
The subject of data set [7] is SARS-CoV-2. Nature of the data set: SARS-CoV-2 IFA against N protein in Vero E6 cells. The settings on record: for SARS-CoV-2 Selectivity index (IFA/CCK-8): CC50/EC50, Vero E6 cells. The class given is cell-based. As for the experimental part:
as §1

Data set [8] can be described thus: Vero E6 cell viability (CCK-8). The class given is cell-based. The settings on record: African green monkey, Vero E6 cells; read-out: SARS-CoV-2 CC50 CCK-8. As for the experimental part: as §1
Data set [9] can be described thus: in vitro. The conditions noted are these: human, MRC-5 cells.
Data set [10] is described as follows: HCT-8 cell viability (MTS). The conditions noted are these: human, HCT-8 cells.
The nature of data set [11]: cell cytotoxicity by visualization (FIPV host cells). The conditions noted are these: cat.
Description: as §2
In data set [12] the test system is HCoV-229E. Nature of the data set: HCoV-229E viral yield, end point dilution assay / TCID50. The settings on record: MRC-5, MOI 0.05; for complete reduction of HCoV-229E viral yield: at 100, 300 and 600 nM respectively (dbq33b, dbq33b4p7, PI09); for concentration giving complete reduction of HCoV-229E viral yield: reduction 6–7 log.
Another data set has as its system Human coronavirus 229E. Nature of the data set: HCoV-229E cytopathic effect, crystal violet absorbance in MRC-5 cells. The settings on record: CC50/EC50, MRC-5 cells.
The test system of data set [13] is SARS-CoV-2. Nature of the data set: microbe, parasite or virus in culture. In kind it is cell-based.
Setting [14] is: Betacoronavirus 1, OC43, HCT-8, 72 h.
Where [15] appears, read: Severe acute respiratory syndrome coronavirus 2, Vero C1008, 48 h, read-out: SARS-CoV-2 EC50 IFA, Vero E6 cells, MOI 0.01, 2 d.p.i., N protein.
The mark [16] stands for this setting: Vero E6 cells, MOI 0.01, 2 d.p.i., N protein, read-out: SARS-CoV-2 EC50 IFA.

Each structure is given as a SMILES string. Counter-ions that a name gives are not always drawn. Like-named read-outs stand apart in the source and are kept apart here.

On to `C[C@H]1O[C@@H](O[C@H]2[C@@H](O)C[C@H](O[C@H]3[C@@H](O)C[C@H](O[C@H]4CC[C@@]5(C)[C@H](CC[C@@H]6[C@@H]5CC[C@]5(C)[C@@H](C7=CC(=O)OC7)CC[C@]65O)C4)O[C@@H]3C)O[C@@H]2C)C[C@H](O)[C@@H]1O` [Digitoxin, digitoxin], for which the EC50 with Human coronavirus OC43 (Betacoronavirus 1, OC43, HCT-8 cells, MOI 0.05, 72 h.p.i., means ± SD) came out at 88 ± 16 nM; in [3], 97 ± 6 nM. Further, the “Human coronavirus OC43 Selectivity index” value in the data set on Human coronavirus OC43 turned out to be 10.3. For the same compound, the CC50 in “in vitro [1]” stood at 825 ± 195 nM; in “in vitro [2]”, 909 ± 123 nM. For the same compound, the “Feline infectious peritonitis virus Selectivity index” value in data set [3] is listed as 8.5.

For the compound `C[C@]12CCC(=NOCCN)C[C@@H]1C(=O)C[C@@H]1[C@@H]2CC[C@]2(C)C(=O)CC[C@@H]12` [Istaroxime, istaroxime hydrochloride], the EC50 in the data set with Human coronavirus OC43 (setting [14]) came out at 5420 ± 268 nM. Besides, the “Human coronavirus OC43 Selectivity index” value with Human coronavirus OC43 is reported as 5.9. In the data set “in vitro [1]”, the CC50 amounted to 7120 ± 750 nM. The same compound displayed a CC50 at 72 h in the data set “in vitro [2]” of 32000 nM. Further, in [3], the EC50 worked out at 2160 nM and the “Feline infectious peritonitis virus Selectivity index” value turned out to be 3.3.

On to `CCN1Cc2c(c3ccc(OC)cc3c3cc(OC)c(OC)cc23)C(O)C1C` (stereo not drawn) [dbq33b4p7], for which the EC50 turned out to be 56 ± 6 nM in the data set on Human coronavirus OC43 (setting [14]); 20 nM in the data set with SARS-CoV-2 [5]; 32 nM in the data set on SARS-CoV-2 [7] (setting [15]); 31.9 nM in the data set on SARS-CoV-2 [7] (setting [16]); 20 ± 7 nM in data set [3]. Besides, in the data set on Human coronavirus OC43, the “Human coronavirus OC43 Selectivity index” value is more than 179. Further, the “complete reduction of HCoV-OC43 viral yield” value with HCoV-OC43 is reported as 7–8 log of magnitudes. For the same compound, the “concentration accomplishing complete reduction of HCoV-OC43 viral yield” value in the data set with HCoV-OC43 is listed as 100 nM. For the same compound, the “effect on HCoV-229E viral genome replication and subgenomic viral RNA syntheses (RT-PCR ORF1, ORF N)” value with HCoV-229E [4] was “inhibited HCoV-229E viral genome replication and subgenomic viral RNA syntheses”. For the same compound, the “SARS-CoV-2 Selectivity index (CPE/visualization)” value in the data set with SARS-CoV-2 [5] is recorded as 125. For the same compound, the CC50 in [6] stood at 2500 nM; in data set [8], 2970 nM; in “in vitro [9]”, 7360 nM; in [11] it was 6250 ± 2160 nM. Also, in the data set with SARS-CoV-2 [7], the “SARS-CoV-2 Selectivity index (IFA/CCK-8)” value is 93. The CC50 at 72 h in data set [10] was more than 10000 nM. Further, the “complete reduction of HCoV-229E viral yield” value with HCoV-229E [12] is on record as 6–7 log of magnitudes. In addition, in the data set on HCoV-229E [12], the “concentration giving complete reduction of HCoV-229E viral yield” value is reported as 300 nM. Moreover, the “Human coronavirus 229E Selectivity index” value with Human coronavirus 229E is reported as 290. Also, the “Feline infectious peritonitis virus Selectivity index” value in data set [3] was determined as 312.5.

In the case of `CCN1Cc2c(c3ccc(OC)cc3c3cc(OC)c(OC)cc23)C(O)C1` (stereo not drawn) [dbq33b], the EC50 in the data set with Human coronavirus OC43 (setting [14]) amounted to 16 ± 5 nM; in the data set with SARS-CoV-2 [5] it was 2.5 nM; in the data set on SARS-CoV-2 [7] (setting [15]), 14 nM; with SARS-CoV-2 [7] (setting [16]), 13.9 nM; with SARS-CoV-2 [13] (Severe acute respiratory syndrome coronavirus 2, Vero C1008, read-out: SARS-CoV-2 plaque assay EC50, Vero E6 cells) it was 14 nM; with SARS-CoV-2 [13] (Severe acute respiratory syndrome coronavirus 2, Vero C1008, read-out: SARS-CoV-2 plaque assay EC50, Vero E6 cells, 5–7 days, Figure 5B-b), 13.8 ± 0.3 nM. Moreover, the EC50 in [3] is 8 ± 2 nM. Besides, the “Human coronavirus OC43 Selectivity index” value with Human coronavirus OC43 is on record as more than 610. Moreover, in the data set with HCoV-OC43, the “complete reduction of HCoV-OC43 viral yield” value is on record as 7–8 log of magnitudes. Besides, the “concentration accomplishing complete reduction of HCoV-OC43 viral yield” value in the data set with HCoV-OC43 came to 30 nM. Besides, the “effect on HCoV-229E viral genome replication and subgenomic viral RNA syntheses (RT-PCR ORF1, ORF N)” value in the data set on HCoV-229E [4] is “inhibited HCoV-229E viral genome replication and subgenomic viral RNA syntheses”. The “SARS-CoV-2 Selectivity index (CPE/visualization)” value in the data set with SARS-CoV-2 [5] is given as 500. Also, the CC50 in [6] is 1250 nM; in data set [8], 5100 nM; in “in vitro [9]” it was 1710 nM; in data set [11], 3120 nM. The “SARS-CoV-2 Selectivity index (IFA/CCK-8)” value in the data set on SARS-CoV-2 [7] is recorded as 367. In addition, the CC50 at 72 h in data set [10] is more than 10000 nM. In the data set on HCoV-229E [12], the “complete reduction of HCoV-229E viral yield” value is given as 6–7 log of magnitudes. Moreover, the “concentration giving complete reduction of HCoV-229E viral yield” value in the data set on HCoV-229E [12] amounted to 100 nM. The “Human coronavirus 229E Selectivity index” value in the data set with Human coronavirus 229E is listed as 264. Besides, the “Feline infectious peritonitis virus Selectivity index” value in [3] is given as 390.6.
